Reference: ChEMBL document CHEMBL5390323, “Novel IRAK4 Inhibitors for Treating Asthma, COPD, Cancer, Autoinflammatory Diseases, and Autoimmune Diseases” (ACS Med Chem Lett, 2023)
pIC50: −log10 of the molar value.

Target: T1, Interleukin-1 receptor-associated kinase 4 (Homo sapiens, UniProt Q9NWZ3)
T1 sequence (Q9NWZ3 whole entry): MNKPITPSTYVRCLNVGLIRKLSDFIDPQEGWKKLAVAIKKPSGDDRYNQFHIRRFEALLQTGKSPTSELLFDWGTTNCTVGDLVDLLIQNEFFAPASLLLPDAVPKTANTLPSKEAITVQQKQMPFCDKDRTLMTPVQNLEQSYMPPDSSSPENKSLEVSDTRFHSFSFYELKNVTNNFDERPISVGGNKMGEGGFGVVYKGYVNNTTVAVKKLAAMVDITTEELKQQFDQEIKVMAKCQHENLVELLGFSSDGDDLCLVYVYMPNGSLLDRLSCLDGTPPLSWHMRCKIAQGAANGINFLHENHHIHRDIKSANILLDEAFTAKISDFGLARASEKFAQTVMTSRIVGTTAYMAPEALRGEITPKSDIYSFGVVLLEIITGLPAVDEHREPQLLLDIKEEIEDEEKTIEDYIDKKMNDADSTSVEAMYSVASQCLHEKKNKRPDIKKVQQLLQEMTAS
Test: Inhibition of recombinant human full length his-tagged IRAK4 expressed in insect cells using KKARFSRFAGSSPSQSSMVAR as peptide substrate preincubated for 15 mins followed by substrate addition and measured after 2 hrs in presence of ATP by LC-MS/MS analysis

pIC50: 9.30
Structure (SMILES): COc1cc2nn([C@H]3CC[C@H](n4ccnc4C(C)O)CC3)cc2cc1C(=O)Nc1cccn(C)c1=O (stereo partly specified)
